In patent US11365199B2, “Pyrazole compounds as modulators of FSHR and uses thereof” (Merck Patent GmbH, priority 2013, dated 2022):
Read-outs that look alike come from different tables or passages of the source.

Experiments:
[1] = target: T1, follicle-stimulating hormone (FSH) receptor (Rattus norvegicus, UniProt P20395); experiment: Rat granulosa EC50 FSH (Assay B); format: cell-based
T1 construct: endogenous in cells; host or cells: primary rat granulosa cells
T1 sequence (P20395 18-692): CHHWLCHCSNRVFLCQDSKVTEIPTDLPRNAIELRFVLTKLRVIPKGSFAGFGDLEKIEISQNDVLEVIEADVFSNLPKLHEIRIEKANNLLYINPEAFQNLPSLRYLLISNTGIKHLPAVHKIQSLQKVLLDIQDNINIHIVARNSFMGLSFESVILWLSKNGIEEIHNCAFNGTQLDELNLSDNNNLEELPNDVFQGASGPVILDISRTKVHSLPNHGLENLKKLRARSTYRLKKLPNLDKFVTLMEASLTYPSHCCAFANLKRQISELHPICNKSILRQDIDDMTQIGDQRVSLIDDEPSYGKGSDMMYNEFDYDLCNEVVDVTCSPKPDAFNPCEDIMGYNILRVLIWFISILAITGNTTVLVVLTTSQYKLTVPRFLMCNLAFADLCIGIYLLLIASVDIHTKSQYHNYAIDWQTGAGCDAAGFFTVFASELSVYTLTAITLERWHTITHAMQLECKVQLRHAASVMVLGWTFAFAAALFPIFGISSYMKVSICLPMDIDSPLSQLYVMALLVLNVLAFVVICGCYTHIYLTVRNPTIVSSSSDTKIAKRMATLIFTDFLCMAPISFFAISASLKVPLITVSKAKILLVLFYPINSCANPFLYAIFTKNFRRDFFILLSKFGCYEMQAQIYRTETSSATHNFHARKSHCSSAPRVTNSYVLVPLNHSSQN
Experimental: Rat Granulosa EC50 FSH (Assay B)
The assay was performed pursuant to the teaching of Yanofsky et al. (2006) Allosteric activation of the follicle-stimulating hormone (FSH) receptor by selective, nonpeptide agonists (JBC 281(19): 13226-13233, which is incorporated by reference in the disclosure of the invention).

FSHR = target: T2, FSHR (Homo sapiens, UniProt P23945); experiment: EC50 of cyclic AMP production in CHO FSHR cells + EC20 FSH (Assay A); format: cell-based
T2 construct: expressed in transfected cells; host or cells: CHO (Cho-FSHR-LUC-1-1-43)
T2 sequence (P23945 18-695): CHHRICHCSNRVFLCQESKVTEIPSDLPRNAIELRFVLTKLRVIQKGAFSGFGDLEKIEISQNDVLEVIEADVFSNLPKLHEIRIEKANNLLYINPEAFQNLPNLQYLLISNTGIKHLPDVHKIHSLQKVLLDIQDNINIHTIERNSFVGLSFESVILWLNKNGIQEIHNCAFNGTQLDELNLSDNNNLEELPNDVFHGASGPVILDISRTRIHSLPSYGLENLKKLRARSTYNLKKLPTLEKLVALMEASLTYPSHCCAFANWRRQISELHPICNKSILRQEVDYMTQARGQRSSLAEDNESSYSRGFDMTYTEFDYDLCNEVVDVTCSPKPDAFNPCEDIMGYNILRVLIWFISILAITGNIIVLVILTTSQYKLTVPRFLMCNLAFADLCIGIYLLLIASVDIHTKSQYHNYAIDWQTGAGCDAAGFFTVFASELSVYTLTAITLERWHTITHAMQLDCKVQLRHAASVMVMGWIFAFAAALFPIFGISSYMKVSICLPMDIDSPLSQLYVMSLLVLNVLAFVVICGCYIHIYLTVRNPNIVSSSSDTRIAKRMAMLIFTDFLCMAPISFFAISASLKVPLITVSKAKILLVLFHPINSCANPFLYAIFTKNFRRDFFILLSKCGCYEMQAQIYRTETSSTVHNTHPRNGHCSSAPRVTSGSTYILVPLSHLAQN
Outline: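 Cho-FSHR-LUC cells were exposed to compound dilution series with EC20 FSH ([…]) and 200 μM IBMX for 1 h at 37° C. cAMP was read by HTRF (665/620 nm ratio). Effects are percent of the maximal FSH standard response.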

[2] = rat granulosa cells, read-out: Assay B: Rat granulosa EC50 FSH
[3] = CHO FSHR cells + EC20 FSH, cAMP HTRF, read-out: Assay A: EC50 of cyclic AMP production

| SMILES | EC50 [1, 2] [µM] | EC50 (FSHR; [3]) [µM] | EC50 [1] [µM] | EC50 (FSHR) [µM] |
| --- | --- | --- | --- | --- |
| [2H]C([2H])([2H])OCC1(N(C(=O)c2nn(-c3ccsc3)c3c2COc2cc(OC)c(-c4ccn(C)n4)cc2-3)C([2H])([2H])[2H])COC1 [Compound 114] | 1 to 5 | < 0.1 | – | – |
| [2H]C([2H])([2H])N(C(=O)c1nn(-c2ccsc2)c2c1COc1cc(OC)c(-c3ccn(C)c3)cc1-2)C1(C)COC1 [Compound 115] | 0.1 to 1 | < 0.1 | – | – |
| [2H]C([2H])([2H])N(C(=O)c1nn(-c2ccsc2)c2c1COc1cc(OC)c(-c3ccn(C)n3)cc1-2)C1(C)COC1 [Compound 116] | 1 to 5 | < 0.1 | – | – |
| [2H]C([2H])([2H])OCC1(N(C(=O)c2nn(-c3ccsc3)c3c2COc2cc(OC)c(-c4ccnn4C)cc2-3)C([2H])([2H])[2H])COC1 [Compound 119] | 1 to 5 | < 0.1 | – | – |
| COc1cc2c(cc1-c1c(C)nn(C)c1C)-c1c(c(C(=O)N3CCOCC3(C)C)nn1-c1ccsc1)CO2 [Compound 121, (3,3-Dimethyl-morpholin-4-yl)-[7-methoxy-1-thiophen-3-yl-8-(1,3,5-trimethyl-1H-pyrazol-4-yl)-1,4-dihydro-chromeno[4,3-c]pyrazol-3-yl]-methanone] | > 5 | < 0.1 | – | – |
| COc1cc2c(cc1-c1cc(C)nn1C)-c1c(c(C(=O)N3CCOCC3(C)C)nn1-c1ccsc1)CO2 [Compound 122, (3,3-Dimethyl-morpholin-4-yl)-[8-(2,5-dimethyl-2H-pyrazol-3-yl)-7-methoxy-1-thiophen-3-yl-1,4-dihydro-chromeno[4,3-c]pyrazol-3-yl]-methanone] | > 5 | < 0.1 | – | – |
| COc1cc2c(cc1-c1cccn1C)-c1c(c(C(=O)N3CCOCC3(C)C)nn1-c1ccsc1)CO2 [Compound 125, (3,3-Dimethyl-morpholin-4-yl)-[7-methoxy-8-(1-methyl-1H-pyrrol-2-yl)-1-thiophen-3-yl-1,4-dihydro-chromeno[4,3-c]pyrazol-3-yl]-methanone] | 1 to 5 | < 0.1 | – | – |
| COc1cc2c(cc1-c1c(C)n[nH]c1C)-c1c(c(C(=O)N3CCOCC3(C)C)nn1-c1ccsc1)CO2 [Compound 126, (3,3-Dimethyl-morpholin-4-yl)-[8-(3,5-dimethyl-1H-pyrazol-4-yl)-7-methoxy-1-thiophen-3-yl-1,4-dihydro-chromeno[4,3-c]pyrazol-3-yl]-methanone] | 0.1 to 1 | < 0.1 | – | – |
| COc1cc2c(cc1C(O)C(C)C)-c1c(c(C(=O)N3CCOCC3(C)C)nn1-c1ccsc1)CO2 (centres unmarked) [Compound 131, (3,3-Dimethyl-morpholin-4-yl)-[8-(1-hydroxy-2-methyl-propyl)-7-methoxy-1-thiophen-3-yl-1,4-dihydro-chromeno[4,3-c]pyrazol-3-yl]-methanone] | 1 to 5 | < 0.1 | – | – |
| COc1cc2c(cc1-c1ncco1)-c1c(c(C(=O)N(C)C(C)(C)C)nn1-c1ccsc1)CO2 [Compound 132, 7-Methoxy-8-oxazol-2-yl-1-thiophen-3-yl-1,4-dihydro-chromeno[4,3-c]pyrazole-3-carboxylic acid tert-butyl-methyl-amide] | 0.1 to 1 | < 0.1 | – | – |
| COc1cc2c(cc1C1=NC([Si](C)(C)C)N=N1)-c1c(c(C(=O)N3CCOCC3(C)C)nn1-c1ccsc1)CO2 (centres unmarked) [Compound 139, (3,3-Dimethyl-morpholin-4-yl)-[7-methoxy-1-thiophen-3-yl-8-(5-trimethylsilanyl-5H-[1,2,4]triazol-3-yl)-1,4-dihydro-chromeno[4,3-c]pyrazol-3-yl]-methanone] | – | – | 1 to 5 | < 0.1 |
| [2H]C([2H])([2H])N(C(=O)c1nn(-c2ccsc2)c2c1COc1cc(OC)c(-c3ccn(C)c3)cc1-2)C1CCOC1 (centres unmarked) [Compound 146] | 0.1 to 1 | 0.1 to 1 | – | – |
| COC/C=C/c1cc2c(cc1OC)OCc1c(C(=O)N(C)C(C)(C)C)nn(-c3ccsc3)c1-2 [Compound 147, 7-Methoxy-8-((E)-3-methoxy-propenyl)-1-thiophen-3-yl-1,4-dihydro-chromeno[4,3-c]pyrazole-3-carboxylic acid tert-butyl-methyl-amide] | 0.1 to 1 | < 0.1 | – | – |
| COc1cc2c(cc1C1=CCCCO1)-c1c(c(C(=O)N(C)C(C)(C)C)nn1-c1ccsc1)CO2 [Compound 148, 8-(5,6-Dihydro-4H-pyran-2-yl)-7-methoxy-1-thiophen-3-yl-1,4-dihydro-chromeno[4,3-c]pyrazole-3-carboxylic acid tert-butyl-methyl-amide] | 0.1 to 1 | < 0.1 | – | – |
| COc1cc2c(cc1C1=CCCC1)-c1c(c(C(=O)N(C)C(C)(C)C)nn1-c1ccsc1)CO2 [Compound 149, 8-Cyclopent-1-enyl-7-methoxy-1-thiophen-3-yl-1,4-dihydro-chromeno[4,3-c]pyrazole-3-carboxylic acid tert-butyl-methyl-amide] | 0.1 to 1 | < 0.1 | – | – |
| COc1cc2c(cc1-c1cn(C)nc1C)-c1c(c(C(=O)N(C)C(C)(C)C)nn1-c1ccsc1)CO2 [Compound 150, 8-(1,3-Dimethyl-1H-pyrazol-4-yl)-7-methoxy-1-thiophen-3-yl-1,4-dihydro-chromeno[4,3-c]pyrazole-3-carboxylic acid tert-butyl-methyl-amide] | 0.1 to 1 | < 0.1 | – | – |
| COc1cc2c(cc1C1=CCOC1)-c1c(c(C(=O)N(C)C(C)(C)C)nn1-c1ccsc1)CO2 [Compound 151, 8-(2,5-Dihydro-furan-3-yl)-7-methoxy-1-thiophen-3-yl-1,4-dihydro-chromeno[4,3-c]pyrazole-3-carboxylic acid tert-butyl-methyl-amide] | 0.1 to 1 | < 0.1 | – | – |
| COc1cc2c(cc1-c1cn(C)nn1)-c1c(c(C(=O)N(C)C(C)(C)C)nn1-c1ccsc1)CO2 [Compound 153, 7-Methoxy-8-(1-methyl-1H-[1,2,3]triazol-4-yl)-1-thiophen-3-yl-1,4-dihydro-chromeno[4,3-c]pyrazole-3-carboxylic acid tert-butyl-methyl-amide] | < 0.1 | < 0.1 | – | – |
| COc1cc2c(cc1-c1ccn(C)n1)-c1c(c(C(=O)N3CCOCC34COC4)nn1-c1ccsc1)CO2 [Compound 154, (2,8-Dioxa-5-aza-spiro[3.5]non-5-yl)-[7-methoxy-8-(1-methyl-1H-pyrazol-3-yl)-1-thiophen-3-yl-1,4-dihydro-chromeno[4,3-c]pyrazol-3-yl]-methanone] | 1 to 5 | < 0.1 | – | – |
| COc1cc2c(cc1-c1ccn(C)c1)-c1c(c(C(=O)N3CCN(C(=O)OC(C)(C)C)CC3(C)C)nn1-c1ccsc1)CO2 [Compound 157, 4-[7-Methoxy-8-(1-methyl-1H-pyrrol-3-yl)-1-thiophen-3-yl-1,4-dihydro-chromeno[4,3-c]pyrazole-3-carbonyl]-3,3-dimethyl-piperazine-1-carboxylic acid tert-butyl ester] | 0.1 to 1 | 0.1 to 1 | – | – |
| COc1cc2c(cc1-c1ccn(C)n1)-c1c(c(C(=O)N3CCN(C)CC3(C)C)nn1-c1ccsc1)CO2 [Compound 159, [7-Methoxy-8-(1-methyl-1H-pyrazol-3-yl)-1-thiophen-3-yl-1,4-dihydro-chromeno[4,3-c]pyrazol-3-yl]-(2,2,4-trimethyl-piperazin-1-yl)-methanone] | < 0.1 | < 0.1 | – | – |
| COc1cc2c(cc1-c1ccn(C)c1)-c1c(c(C(=O)N3CCN(C)CC3(C)C)nn1-c1ccsc1)CO2 [Compound 160, [7-Methoxy-8-(1-methyl-1H-pyrrol-3-yl)-1-thiophen-3-yl-1,4-dihydro-chromeno[4,3-c]pyrazol-3-yl]-(2,2,4-trimethyl-piperazin-1-yl)-methanone] | < 0.1 | < 0.1 | – | – |
